Consider 4 compounds from patent publication US11779613B2, “Compositions comprising a bacterial strain of the genus Megasphera and uses thereof” (CJ BIOSCIENCE, INC., priority 2017, dated 2023).

The subject of assay [1] is histone deacetylase. The assay can be described thus: Histone deacetylase activity in HT-29 whole cells. It is filed as cell-based. To be noted: for total HDAC activity, pure substances: different concentrations, whole HT-29 cells and HT-29 cell lysate, FIG. 16B. The procedure:
The cell line HT-29 was used because histone deacetylase is present.
Cell free supernatants of stationary phase bacterial cultures were isolated by centrifugation and filtering in a 0.22 uM filter. HT-29 cells were used 3 days' post confluence and stepped down in 1 mL DTS 24 hours prior to commencement of the experiment. The HT-29 cells were challenged with 10% cell free supernatant diluted in DTS and was is left to incubate for 48 hours. […] extraction kit and samples were snap frozen prior to HDAC activity measurement. HDAC activity was assessed fluorometrically using the Sigma Aldrich (UK) kit.
(§1) Pure cultures of bacteria were grown anaerobically in YCFA broth until they reached their stationary growth phase. Cultures were centrifuged at 5,000×g for 5 minutes and the cell-free supernatant (CFS) was filtered using a […] (Millipore, UK). 1 mL aliquots of the CFS were stored at −80° C. until use. Sodium butyrate, hexanoic and valeric acid were obtained from Sigma Aldrich (UK) and suspensions were prepared in YCFA broth.
(§2) To investigate which metabolites were responsible for the strain-induced HDAC inhibition, different concentrations of hexanoic acid, valeric acid and sodium butyrate were measured for their HDAC inhibition on whole HT-29 cells and on HT-29 cell lysate.

In assay [2] the test system is histone deacetylase. The assay can be described thus: Histone deacetylase activity in HT-29 cell lysate. The conditions noted are these: FIG. 16A/16B. It is filed as biochemical. As for the experimental part:
as §1, §2

For assay [3], the system named is SH-SY5Y neuroblastoma cells. In words: Cell viability / neuroprotection of SH-SY5Y neuroblastoma cells with or without MPP (CCK-8). The conditions noted are these: compared to YCFA-MPP+ treated sample, FIG. 15. It is filed as cell-based, human. As for the experimental part: SH-SY5Y neuroblastoma cells were purchased from ECCACC (Cat. no: 94030304) and were grown in MEM (Sigma Aldrich, cat n. M2279) supplemented with Nutrient Mixture F-12 Ham (Sigma Aldrich, cat n. N4888).
Once grown the SH-SY5Y neuroblastoma cells were plated on 96-well plate at 11,000 cells/well and incubated for 2 days. The cells were then transferred to differentiation medium (which contains FBS at 1%) and 10 uM retinoic acid (Sigma Aldrich, cat. n. R2625-100MG). Differentiation medium was replaced every other day and cells were harvested at 7 day of differentiation. Cells were pre-treated with or without MPP (Sigma Aldrich, cat. n. D048-1G) for 8 hours. Subsequently, cells were treated with 10% bacterial supernatant and incubated overnight. Cell viability was measured by using CCK-8 reagent (Sigma Aldrich, Cell Counting Kit—8, cat. n. 96992-3000TESTS-F) and read at 450 nm wavelength.
RA-differentiated SHSY-5Y cells were treated with MPP+, the active metabolite of MPTP, a chemical widely used to mimic in vitro and in vivo some of the features of PD pathology. Cell viability was measured as the rate of mitochondria respiration (FIG. 15).

With `CCCC(=O)[O-].[Na+]` [sodium butyrate, Sodium butyrate], the “HDAC inhibition, HT29 whole cells” value in assay [1] (FIG. 16A/16B) is recorded as “significant (P<0.05) inhibition”. Also, the “total HDAC activity, pure substances” value in assay [1] is listed as “significant HDAC inhibition”. In addition, in assay [2], the “HDAC inhibition, HT29 cell lysates” value is “significant (P<0.05) inhibition”. In the case of `CCCCCC(=O)O` [hexanoic acid], in assay [1], the “total HDAC activity, pure substances” value was “did not show significant inhibitory activity”.

In the case of `CCCCC(=O)O` [valeric acid], the “total HDAC activity, pure substances” value is given as “significant HDAC inhibition” in assay [1] and “inhibited total HDAC activity” in assay [1] (listed as Valeric acid). As to `O=c1c(O)c(-c2ccc(O)c(O)c2)oc2cc(O)cc(O)c12` [quercetin, Quercetin], the “protection from MPP+” value in assay [3] is reported as “about 20%”.
